Measurements: US7049289B1, “Labelled glutamine and lysine analogues” (Amersham PLC, priority 1998, dated 2006)
The star is where a group is joined. Adamantane1carbonyl = O=C(C12CC3CC(CC(C3)C1)C2)*

What was measured:
[1] = biological target: T1, fibrin (in vitro human plasma clot) (Homo sapiens, UniProt P02671+P02675+P02679); experiment: Incorporation into human plasma clots in vitro; type: biochemical; conditions: for % specific uptake: % retained (with thrombin) - % retained (no thrombin); for % retained (no thrombin): control without thrombin and calcium chloride (non-specific binding); for % retained (with thrombin): human plasma clot, 60 minutes, ca. 20° C.
T1 construct: about 400 μl of human plasma containing the radiolabelled substrate; from tissue; host or cells: human plasma, clotted in vitro with added thrombin and calcium chloride
T1 sequence (P02671 20-644 isoform P02671-2 limits assumed): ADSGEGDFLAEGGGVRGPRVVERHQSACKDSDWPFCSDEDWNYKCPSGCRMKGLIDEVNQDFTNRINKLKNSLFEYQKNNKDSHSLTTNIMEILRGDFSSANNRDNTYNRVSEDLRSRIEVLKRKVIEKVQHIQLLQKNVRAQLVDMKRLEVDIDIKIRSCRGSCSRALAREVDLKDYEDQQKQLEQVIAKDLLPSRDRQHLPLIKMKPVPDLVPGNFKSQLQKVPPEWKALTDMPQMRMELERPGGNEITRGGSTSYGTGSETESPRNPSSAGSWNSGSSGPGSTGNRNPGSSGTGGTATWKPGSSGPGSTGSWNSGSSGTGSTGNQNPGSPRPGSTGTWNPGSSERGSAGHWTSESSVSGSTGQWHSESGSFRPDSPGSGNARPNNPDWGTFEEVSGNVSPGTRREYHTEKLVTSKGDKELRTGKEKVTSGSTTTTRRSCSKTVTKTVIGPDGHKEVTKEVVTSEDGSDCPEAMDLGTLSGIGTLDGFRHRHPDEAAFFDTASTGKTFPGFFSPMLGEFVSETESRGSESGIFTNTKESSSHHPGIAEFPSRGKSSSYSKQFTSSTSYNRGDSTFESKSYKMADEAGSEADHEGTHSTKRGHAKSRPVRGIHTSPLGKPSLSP
T1 sequence (P02675 45-491 limits assumed): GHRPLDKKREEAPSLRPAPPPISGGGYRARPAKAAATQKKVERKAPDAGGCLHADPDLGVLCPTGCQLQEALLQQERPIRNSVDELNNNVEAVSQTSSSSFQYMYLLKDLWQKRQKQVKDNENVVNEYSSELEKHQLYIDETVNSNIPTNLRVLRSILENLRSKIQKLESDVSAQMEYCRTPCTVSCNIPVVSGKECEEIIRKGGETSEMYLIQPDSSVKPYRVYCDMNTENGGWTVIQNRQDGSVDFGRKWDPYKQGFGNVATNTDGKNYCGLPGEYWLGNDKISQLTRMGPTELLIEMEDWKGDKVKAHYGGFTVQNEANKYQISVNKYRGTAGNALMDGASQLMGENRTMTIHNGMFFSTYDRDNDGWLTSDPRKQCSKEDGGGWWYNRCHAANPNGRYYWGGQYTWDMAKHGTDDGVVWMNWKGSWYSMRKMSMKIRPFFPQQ
T1 sequence (P02679 27-437 isoform P02679-2 limits assumed): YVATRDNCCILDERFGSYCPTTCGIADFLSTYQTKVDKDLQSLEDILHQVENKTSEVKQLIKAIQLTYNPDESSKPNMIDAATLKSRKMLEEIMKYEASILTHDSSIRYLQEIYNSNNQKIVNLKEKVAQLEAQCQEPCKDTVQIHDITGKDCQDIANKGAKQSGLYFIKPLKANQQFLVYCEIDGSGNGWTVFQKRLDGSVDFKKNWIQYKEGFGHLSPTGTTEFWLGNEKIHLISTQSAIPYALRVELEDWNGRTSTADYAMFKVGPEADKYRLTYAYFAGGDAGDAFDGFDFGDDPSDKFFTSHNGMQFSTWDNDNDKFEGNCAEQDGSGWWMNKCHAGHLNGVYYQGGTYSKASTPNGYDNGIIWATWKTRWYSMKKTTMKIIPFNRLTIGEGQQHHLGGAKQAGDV
Experimental: Incorporation of radiolabelled substrates into fibrin was investigated by induction of an in vitro human plasma clot in the following manner. To a siliconised 5 ml glass vial was added, (a) 800 μl of Tris(hydroxymethyl)aminomethane buffered saline pH 7.5 containing calcium chloride (50 mM Tris, 150 mM sodium chloride, 4 mM calcium chloride.), (b) about 40 μl of physiological salt solution containing 100 units of thrombin per ml, (c) about 400 μl of human plasma containing the radiolabelled substrate at a concentration of typically 10 kBq/ml. To aid induction of clot a roughened glass rod was added to the reaction vial. Control vials were prepared similarly but with the omission of thrombin and calcium chloride.
After incubation of the test solution at ambient laboratory temperature (ca. 20° C.) for 60 minutes the reaction was discontinued with the addition of about 400 μl of a cold solution of 33.5 mM ethylenediaminetetra-acetic acid disodium salt. Clots were separated from serum by vacuum filtration onto […] nitrocellulose filters (pre-soaked in 1.5% BSA/tris(hydroxymethyl)aminoethae buffered saline pH 7.5 containing 0.1% Tween 20) and washed with about 2×10 ml of tris(hydroxymethyl)aminomethane buffered saline pH 7.5 containing Tween 20 to a final concentration of 0.1% v/v. The proportion of total radioactivity was calculated by counting in suitable detection apparatus.
The fraction of radioactivity retained on the filter, after subtraction of the non-specific binding determined from the control, is a measure of incorporation into the filtered clots.

[2] = Incorporation into clots induced in a rat model (rat inferior vena cava model); type: in vivo, rat (Male Wistar); conditions: for % id/g (clot) / Rel. Conc. (cpm/g of clot by dose/g animal): sacrificed after 60 min
Experimental: The rats (Male Wistar, 250–350 g) were anaesthetised with 15% urethane. After laparotomy, the vena cava was isolated and freed of surrounding fat tissue. […] The compounds were injected 5 min (fresh clot) and 60 min (aged clot) post-induction. After 60 min the animals were sacrificed and the clot removed, weighed and counted. Other tissues e.g. blood, lung, heart, were also dissected and counted. The uptake of tracer into the clot was determined as the relative concentration (cpm/g of clot by dose/g animal) and clot to background tissue.

[3] = Aged Clots: injected 60 min post-induction
[4] = Fresh Clots: injected 5 min post-induction

Row | Substance | % specific uptake [1] [%] | % retained (no thrombin) [1] [%] | % retained (with thrombin) [1] [%] | in vitro clot uptake (in words) ([1]; in vitro clot) | Clot/blood ([2]; Aged Clots) | Clot/heart ([2]; Aged Clots) | Clot/liver ([2]; Aged Clots) | Clot/lung ([2]; Aged Clots) | % id/g (clot) [2, 3] [% id/g] | Rel. Conc. (cpm/g of clot by dose/g animal) [2, 3] | Clot/blood ([2]; Fresh Clots) | Clot/heart ([2]; Fresh Clots) | Clot/liver ([2]; Fresh Clots) | Clot/lung ([2]; Fresh Clots) | % id/g (clot) [2, 4] [% id/g] | Rel. Conc. (cpm/g of clot by dose/g animal) [2, 4]
1 | Ac-NQQQVSPYTLLKG-Pn216 (also: 99mTc complex) [^99mTc-Cmpd 15] | 55.2 | 0.4 | 55.6 |  | 3 | 1 |  | 0.6 | 3.4 ± 0.6 | 7.6 ± 1.6 | 4 | 12 | 11 | 6 | 3.6 ± 1.0 | 8.3 ± 2.2
2 | Adamantoyl-NQEQVSPYTLLKG-Pn216 (Adamantane1carbonyl-NQEQVSPYTLLKG-Pn216; also: 99mTc complex) [^99mTc-Cmpd 11] | 66.9 | 1.2 | 68.1 |  | 5 | 13 | 4 | 6 | 0.4 ± 0.3 | 1.2 ± 0.8 | 10 | 24 | 11 | 11 | 1.1 ± 0.4 | 3.3 ± 1.1
3 | Cyclo-[NQEQVSPYTLLKG] (cyclo(NQEQVSPYTLLKG); also: 123I label, place not given here) [^123I-Cmpd 44] | 13.8 | 0.3 | 14.1 |  | 0.9 | 1 | 1 | 2 | 0.5 ± 0.03 | 1.2 ± 0.1 | 0.9 | 1 | 2 | 1.5 | 0.4 ± 0.1 | 1.1 ± 0.2

Now from value to substance, other results behind:

Row | % specific uptake [1] [%] | % retained (no thrombin) [1] [%] | % retained (with thrombin) [1] [%] | in vitro clot uptake (in words) ([1]; in vitro clot) | Substance | Clot/blood ([2]; Aged Clots) | Clot/heart ([2]; Aged Clots) | Clot/liver ([2]; Aged Clots) | Clot/lung ([2]; Aged Clots) | % id/g (clot) [2, 3] [% id/g] | Rel. Conc. (cpm/g of clot by dose/g animal) [2, 3] | Clot/blood ([2]; Fresh Clots) | Clot/heart ([2]; Fresh Clots) | Clot/liver ([2]; Fresh Clots) | Clot/lung ([2]; Fresh Clots) | % id/g (clot) [2, 4] [% id/g] | Rel. Conc. (cpm/g of clot by dose/g animal) [2, 4]
4 | 38.4 | 0.2 | 38.6 |  | Ac-NQEQVSPYTLLKG-NH2 [^123I-Cmpd 2] | 24 | 23 | 20 | 12 | 5.5 ± 1.7 | 14.5 ± 3.9 | 7 | 19 | 21 | 10 | 4.9 ± 0.8 | 14.5 ± 2.2
5 | 5.4 | 0.1 | 5.5 | significant reduction in uptake | Ac-N—CH2NH2-QEQVSP(D-Y)TLL(D-K)G-Pn216 [^99mTc-Cmpd 34] | 3 |  | 6 |  | 0.4 ± 0.1 | 1.4 ± 0.4 | 2 | 6 | 8 | 3 | 0.5 ± 0.2 | 1.8 ± 0.5
